In publication PMC12480555 (Scientific Reports, 2025):

Experiments:
[1] = MTT cytotoxicity assay; format: cell-based; details: human, HFF cells
[2] = Kidney histology in colon cancer model; details: kidney tissue, day 21
[3] = Blood parameters in colon cancer model
[4] = system: CT26-induced tumors; experiment: Tumor histology; details: tumor tissue, day 21
[5] = system: CT26-induced tumors; experiment: Colon cancer model, tumor weight and size after 21 days; details: intravenous every three days

O=c1[nH]cc(F)c(=O)[nH]1 [Free 5FU, 5-Fluorouracil]
viability at 24 h, 0.2 mg/mL [1]: 99.5% | viability at 24 h, 0.5 mg/mL [1]: 87.9% | viability at 24 h, 1 mg/mL [1]: 85.9% | viability at 24 h, 1.5 mg/mL [1]: 75.9% | viability at 24 h, 2 mg/mL [1]: 75.1% | viability at 48 h, 0.2 mg/mL [1]: 104% | viability at 48 h, 0.5 mg/mL [1]: 94.1% | viability at 48 h, 1 mg/mL [1]: 79.4% | viability at 48 h, 1.5 mg/mL [1]: 74.7% | viability at 48 h, 2 mg/mL [1]: 65.1% | renal complications (kidney histology) [2]: Most renal complications occurred in this group | Red Blood Cell Count ± SD ([3]; Day 21): 4.2 ± 0.3 ×10⁶ cells/µL | White Blood Cell Count ± SD ([3]; Day 21): 10.0 ± 1.5 ×10³ cells/µL | Hemoglobin Level ± SD ([3]; Day 21, listed as 5-FU): 9.0 ± 0.8 g/dL | Hemoglobin Level ± SD ([3]; Day 21, listed as free 5-FU): 9.0 g/dL | Hemoglobin Level ± SD ([3]; Treatment start): 12.8 ± 1.2 g/dL | Red Blood Cell Count ± SD ([3]; Treatment start): 5.6 ± 0.5 ×10⁶ cells/µL | White Blood Cell Count ± SD ([3]; Treatment start): 8.3 ± 1.1 ×10³ cells/µL | Number of Apoptotic Cells (per field of view) ± Standard Deviation [4]: 8.0 ± 1.0 per field of view | Other Histopathology Changes [4]: Mild necrotic changes and inflammation | Percentage of Necrosis ± Standard Deviation [4]: 18.0 ± 4.0% | Tumor Differentiation Grade (1 to 3) ± Standard Deviation [4]: 2.0 ± 0.3 | Mean tumor size ± standard deviation [5]: 11.0 ± 2.0 mm | Mean tumor weight ± standard deviation [5]: 0.98 ± 0.36 g
